# Legend:
# [1] = target: BTK (Homo sapiens, UniProt Q06187); details: healthy volunteers, cited from earlier work
# [2] = Phase 2 trial; cited from earlier work
# [3] = test system: 251 kinases; test: broad kinase enzyme inhibition panel; type: biochemical; details: 1 μM
# [4] = patients with chronic lymphatic leukemia; cited from earlier work
# [5] = in vivo; cited from earlier work
# BTK, sequence (Q06187 whole entry): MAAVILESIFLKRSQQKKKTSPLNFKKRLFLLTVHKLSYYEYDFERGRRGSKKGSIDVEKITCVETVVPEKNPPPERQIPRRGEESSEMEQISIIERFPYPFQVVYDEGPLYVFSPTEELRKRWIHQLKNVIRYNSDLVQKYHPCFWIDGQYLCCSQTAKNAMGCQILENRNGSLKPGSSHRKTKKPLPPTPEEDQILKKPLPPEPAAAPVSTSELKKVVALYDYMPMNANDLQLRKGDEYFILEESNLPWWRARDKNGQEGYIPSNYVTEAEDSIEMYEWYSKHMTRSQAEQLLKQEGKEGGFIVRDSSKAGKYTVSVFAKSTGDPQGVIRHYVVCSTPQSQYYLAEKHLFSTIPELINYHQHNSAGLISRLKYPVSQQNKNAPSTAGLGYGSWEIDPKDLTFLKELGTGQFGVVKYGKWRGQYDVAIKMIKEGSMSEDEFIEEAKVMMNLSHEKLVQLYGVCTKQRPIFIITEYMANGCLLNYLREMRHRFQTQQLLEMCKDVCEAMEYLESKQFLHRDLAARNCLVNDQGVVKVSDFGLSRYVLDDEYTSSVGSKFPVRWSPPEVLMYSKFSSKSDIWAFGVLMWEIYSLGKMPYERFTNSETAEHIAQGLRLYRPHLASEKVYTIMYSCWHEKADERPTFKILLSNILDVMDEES
compound,measurement,setting,value
C=CC(=O)Nc1cccc(Nc2nc(Nc3ccc(OCCOC)cc3)ncc2F)c1 [CC-292],tolerability,[1]; doses with 100% occupancy,well tolerated
same,occupancy of the BTK enzyme,[1],100%
C=CC(=O)N1CCC(CNc2ncnc(N)c2-c2ccc(Oc3ccccc3)cc2)CC1 [evobrutinib],efficacy in multiple sclerosis,[2],demonstrated efficacy for multiple sclerosis
C=CC(=O)N1CCC[C@@H](n2nc(-c3ccc(Oc4ccccc4)cc3)c3c(N)ncnc32)C1 [ibrutinib],number of kinases inhibited,[3],21 kinases
same,sequential episodes of severe autoimmune hemolytic anemia and ITP,[4],ceased after initiation of treatment with ibrutinib
same,activity in other hematological malignancies,[5],demonstrated activity in other hematological malignancies

# — patent publication US20260364079A1 (Principia Biopharma Inc., priority 2022, published 2026)
